Results reported in patent publication US20220010283A1, “METHOD FOR PRODUCING PLURIPOTENT STEM CELL HAVING RELEASED DIFFERENTIATION RESISTANCE TO MESENDODERM” (Kyoto University, priority 2018, published 2022).

What was measured:
[1] = tested on: human iPS cell line AK5 (hPSC1); test: Differentiation into hematopoietic progenitor cells by the PSC-Sac method (CD34+CD43+ cell count); format: cell-based; conditions: PSCs maintained on LM511, CHIR99021 6 nM added from 4, 3, 2 or 1 day before start of differentiation induction; vs DMSO (FIG. 2)
Experimental: PSCs were cultured according to the previous report on various laminin E8 fragments under feeder-free conditions (Nakagawa et al., Scientific Reports, 4: 3954, 2014). Among the recombinant laminin E8 fragments used, LM511 E8 was iMatrix-511/iMatrix-511 silk (Nippi, Ibaraki, Japan), and other laminin E8 (LM421/121) fragments were provided by Dr. Kiyotoshi Sekiguchi (Institute for Protein Research, Osaka University). Each laminin fragment was added to 0.5 μg/cm^2 relative to the dish bottom area. In the laminin dilution experiment, coating was performed in the same manner as described above under the conditions of [x½], [x¼], [x⅛], [x 1/16], wherein [x1] is Laminin 511E8 0.5 μg/cm^2 condition. […]
As a method for performing blood cell differentiation from PSCs, the PSC-Sac method, which is a co-culture method with mouse interstitial cell C3H10TR, was used (Takayama and Eto Methods Mol Biol. 2012; 788:205-17, Takaayama et al. J Exp Med. 2010 207(13): 2817-2830). […] After confirmation of the absence of intercellular adhesion, the cells were detached from the dish with Cell scraper, and the number of the cells was counted with Trypan Blue and a hemocytometer. […]
The number of the cells was counted with Trypan Blue and a hemocytometer. […] For the measurement of hPSCs, TRA-1-60 positive cells were measured. […]

[2] = tested on: human iPS cell line AK5; test: Intracellular staining and flow cytometry of pluripotency markers SOX2 and OCT3/4; format: cell-based; conditions: PSCs maintained in LM511 with CHIR99021 added; immediately before initiation of differentiation (FIG. 7)
Experimental: To detect pluripotency markers SOX2 and OCT3/4, intracellular staining was performed by flow cytometry. Briefly, dead cell staining was performed using Zombie (trade s mark) Aqua Fixable Viability Kit (BioLegend, San Diego, Calif., USA). After washing, the cells were fixed by allowing to stand for 15 min at room temperature with PerFix-nckit Reagent1. Successively, the cells were subjected to a permeation treatment by fixing with ice-cooled 100% methanol for 5 min, and incubating for 10 min at room temperature with 0.5% saponin. The cells were washed and suspended in PBS (containing 3% FBS), V450 Mouse anti-Sox2 and Alexa Fluor (registered trade mark) 488 conjugated Mouse anti-OCT3/4 (BD biosciences, Bedford, Mass., USA) was added, and the mixture was incubated on ice for 30 min. Excessive antibody was washed away and analysis was performed with FACSVerse (trade mark) (BD Biosciences).

Cc1c[nH]c(-c2cnc(NCCNc3ccc(C#N)cn3)nc2-c2ccc(Cl)cc2Cl)n1 [CHIR99021, 6-[2-[4-(2,4-Dichlorophenyl)-5-(4-methyl-1H-imidazol-2-yl)pyrimidin-2-ylamino]ethylamino]pyridine-3-carbonitrile]
number of hematopoietic progenitor cells [1]: the number of hematopoietic progenitor cells could be increased
number of cells maintaining positive pluripotency for both OCT3/4 and SOX2 [2]: decreased
